Laboratory results as given in paper PMC4261997 (British Journal of Pharmacology, 2014).

Columns and labels:
human β1-adrenoceptor [1] = target: T1, human β1-adrenoceptor (Homo sapiens, UniProt P08588); experiment: Automated live cell BODIPY-TMR-CGP binding, ImageXpress ultra confocal plate reader, CHO-β1 cells; conditions: 100 nM BOD-CGP; from two-site inhibition curve of the named antagonist, 1 h incubations
β2-adrenoceptor = conditions: read-out: affinity value for the β2-adrenoceptor; ref Baker et al., [2003b]; cited from earlier work
human β1-adrenoceptor [2] = target: T1, human β1-adrenoceptor; experiment: CRE-mediated SPAP transcription reporter gene assay in CHO-β1 cells; format: cell-based; conditions: for Proportion of low-affinity secondary site (site 2) bound: calculated from affinity values of the functional responses

T1 sequence (P08588 whole entry): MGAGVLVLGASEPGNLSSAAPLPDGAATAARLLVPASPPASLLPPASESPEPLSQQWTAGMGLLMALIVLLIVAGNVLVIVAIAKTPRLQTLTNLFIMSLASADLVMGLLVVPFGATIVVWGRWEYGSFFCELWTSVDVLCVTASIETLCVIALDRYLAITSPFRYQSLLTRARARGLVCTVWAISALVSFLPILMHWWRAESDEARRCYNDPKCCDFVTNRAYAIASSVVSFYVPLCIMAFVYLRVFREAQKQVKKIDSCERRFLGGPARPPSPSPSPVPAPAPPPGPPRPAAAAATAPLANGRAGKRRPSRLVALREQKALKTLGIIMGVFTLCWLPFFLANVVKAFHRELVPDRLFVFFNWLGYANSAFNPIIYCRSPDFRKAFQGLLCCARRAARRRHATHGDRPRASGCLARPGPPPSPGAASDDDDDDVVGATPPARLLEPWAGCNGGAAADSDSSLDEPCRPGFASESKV

## Bordifluoropyrromethane-tetramethylrhodamine-(±)CGP 12177 [BODIPY-TMR-CGP]
Human β1-adrenoceptor [1]
  Fraction of BOD-CGP bound to the low-affinity binding site (%): 42.8 ± 0.9%
β2-adrenoceptor
  Kd: 25 nM
Human β1-adrenoceptor [2]; 2 nM BODIPY-TMR-CGP
  Proportion of low-affinity secondary site (site 2) bound: 2%
Human β1-adrenoceptor [2]; 20 nM BODIPY-TMR-CGP
  Proportion of low-affinity secondary site (site 2) bound: circa 17%
Human β1-adrenoceptor [2]; % of the maximum cimaterol response, CHO-β1 cells
  EMAX (% cimaterol): 25.6 ± 3.2 %
Human β1-adrenoceptor [2]; agonist stimulation of SPAP transcription, CHO-β1 cells
  pEC50: 7.12 ± 0.13
Human β1-adrenoceptor [2]; antagonism of CGP 12177 concentration-response curves, low-affinity site 2
  pKD (against CGP 12177): 7.28 ± 0.22
Human β1-adrenoceptor [2]; antagonism of cimaterol concentration-response curves, high-affinity site 1
  pKD (against cimaterol): 9.23 ± 0.06
Human β1-adrenoceptor [2]; from partial agonist concentration-response curve, operational model, cimaterol as full agonist, site 2
  pKA (partial agonism): 7.06 ± 0.13
